{"source": "paper PMC7570852", "about": "“Ruthenium(II)/(III) DMSO-Based Complexes of 2-Aminophenyl Benzimidazole with In Vitro and In Vivo Anticancer Activity” (Molecules, 2020)", "key": {"CT DNA (EB-DNA adduct)": {"tested_on": "CT DNA (EB-DNA adduct)", "assay": "Ethidium bromide (EB-DNA) competitive fluorescence assay", "type": "binding, calf", "settings": "[DNA] = [EB] = 5 μM", "method": "The binding affinity of the metal complexes towards CT DNA was evaluated using competitive fluorescence studies. CT DNA pretreated with ethidium bromide (EB) ([DNA] = [EB] = 5 μM) in Tris-HCl/NaCl buffer (pH = 7.2) was incubated with the complexes in concentrations of 0–90 μM. […] The quenching of EB-DNA adduct fluorescence was followed by monitoring the emission spectra in the wavelength range of 530–650 nm. Upon addition of the metal complexes to the EB-DNA adduct, the quenching binding constant (Kq) at λ = 585 nm is determined from the Stern-Volmer Equation (2):I0/I = 1 + Kq[Q](2) where I0 and I are the fluorescence intensities of EB-DNA in the […] of the metal complexes, respectively, [Q] is the concentration of the tested compounds, and Kq is the quenching constant calculated from the slope of the straight line obtained from plotting Io/I vs. [Q]. In addition, the apparent binding constant can be calculated from Equation (3):KEB[EB] = Kapp[Q](3) where KEB = 1 × 10^7 M^−1 [EB] is the ethidium bromide concentration (5 μM) and [Q] is the concentration of the quencher that provides a 50% intensity reduction of the initial EB-DNA adduct."}, "[1]": {"tested_on": "human colorectal cancer (Caco2) cells", "assay": "MTT cell viability assay, Caco2", "type": "cell-based", "settings": "for Therapeutic index: IC50 of THLE-2 cell/IC50 of Caco2: in vitro", "method": "(§1) The cytotoxic effect of the Hapbim ligand and its complexes (1) and (2) on human breast cancer (MCF7), human colorectal cancer (Caco2), and human normal liver (THLE-2) cell lines was evaluated by the MTT assay. The cells were cultured in a 96-well plate (1 × 10^4 cells/well, 100 μL/well) containing DMEM medium provided with 10% fetal bovine serum, and 1% penicillin/streptomycin. Then, the cells were incubated at 37 °C for 24 h in a CO2 incubator under 5% CO2, 95% air until reaching a confluence of 70–80%. A 20 μL volume of each compound at different concentrations (from 5 to 400 μM for the cancer cell and from 600 to 1000 μM for the normal cells) was added and the cells were re-incubated for a further 24 h. After the incubation period, the cells were incubated again with 5 mg/mL of MTT for 4 h and then the medium was replaced with 100 μL DMSO and vortexed for 20 min. Finally, the absorbance was recorded at 570 nm using the microplate reader. […] To calculate the cell inhibition percentage, the following equation was used:% Cell inhibition = 100 − % cell viability ((At − Ab)/(Ac − Ab)) × 100%)(4) where At is the absorbance value of tested compound; Ab is the absorbance value of blank; Ac is the absorbance value of the control."}, "[2]": {"assay": "Solution stability by UV-Vis spectroscopy", "type": "physicochemical", "settings": "4% DMSO, 96% PBS, pH 7.4, over 24 h", "method": "Stability studies of complexes (1) and (2) were carried out by UV-Vis spectroscopy in the 200–900 nm range. […] The electronic spectra for the solutions were measured over 24 h."}, "[3]": {"tested_on": "human breast cancer (MCF7) cells", "assay": "MTT cell viability assay, MCF7", "type": "cell-based", "settings": "for IC50: read-out: IC50 MCF-7", "method": "as §1"}, "Cyclic voltammetry": {"assay": "Cyclic voltammetry", "type": "physicochemical", "settings": "10^−3 M in CH2Cl2/DMSO, 0.1 M (Bu4N)PF6, scan rate 50 mVs^−1", "method": "Elemental analyses (C, H, N) were performed by the Microanalysis unit in the Department of Chemistry at Simon Fraser University. Infrared spectra (FTIR) were performed on a JASCO 4100 FTIR spectrophotometer in the 4000–400 cm^−1 range using a KBr disc. NMR (^1H and ^13C) spectra were recorded in DMSO-d6 solvent using a Bruker 400 MHz instrument. The 2D NMR analysis (^1H–^1H COSY) was performed on a Jeol 500 MHz NMR, at Mansoura University. ESI/APCI HRMS data were acquired on a Thermo Scientific Exactive Plus Orbitrap mass spectrometer. Electronic spectra (in DMSO, 200–900 nm) were measured on a JASCO 630 V spectrophotometer. Emission spectra of the complexes were measured on a Jenway model 6285 spectrofluorimeter for excitation and emission spectra, 200–700 nm. The magnetic susceptibility of the complexes was measured on a Johnson Matthey magnetic susceptibility balance. […] A microplate reader (StatFax-2100, Awareness Technology, Inc., Palm City, FA, USA), Attune flow cytometer (Applied Biosystems, Foster City, CA, USA), Quawell nanodrop Q5000 (San Jose, CA, USA), StepOnePlus real time PCR system (Applied Biosystems, Foster City, CA, USA), and CO2 incubator (NuAire In-Vitro Cell, Plymouth, MN, USA) were used in biological studies."}, "[4]": {"tested_on": "Ehrlich ascites carcinoma (EAC) cells", "set-up": "method as in PMID 28599251", "settings": "literature comparison; cited from earlier work"}}, "note": "Several values for one entry are separate records, joined by “and”; a condition that tells them apart may be missing. Equal values may be shown once. Read-outs that look alike come from different tables or passages of the source."}
{"molecule": "[Ru(II)Cl2(DMSO)2(Hapbim)] [(1)]", "values": [{"measurement": "Kapp (apparent binding constant)", "setting": "CT DNA (EB-DNA adduct); KEB = 1 × 10^7 M^−1", "value": "1.08 ± 0.11 × 10^7 M^−1"}, {"measurement": "Kq (quenching constant)", "setting": "CT DNA (EB-DNA adduct); Stern-Volmer, 585 nm", "value": "1.96 ± 0.04 × 10^3 M^−1"}, {"measurement": "IC50", "setting": "[1]; MTT, 24 h", "value": "290 ± 20", "unit": "µM"}, {"measurement": "IC50 Caco2", "setting": "[1]; MTT, 24 h", "value": "155 ± 9", "unit": "µg/mL"}, {"measurement": "Therapeutic index: IC50 of THLE-2 cell/IC50 of Caco2", "setting": "[1]", "value": 6.4}, {"measurement": "solution stability (UV-Vis spectral change)", "setting": "[2]", "value": "remain relatively unchanged over the first two hours"}, {"measurement": "IC50 MCF-7", "setting": "[3]; 24 h", "value": "170 ± 10", "unit": "µg/mL"}, {"measurement": "IC50", "setting": "[3]; 24 h", "value": "320 ± 20", "unit": "µM"}, {"measurement": "E1/2 (Ru(II)/Ru(III) redox couple)", "setting": "Cyclic voltammetry", "value": 615, "unit": "mV"}]}
{"molecule": "Nc1ccccc1-c1nc2ccccc2[nH]1", "note": "[Hapbim, 2-aminophenyl benzimidazole]", "values": [{"measurement": "IC50", "setting": "[1]; Homo sapiens, Caco-2, MTT, 24 h", "value": "80 µg/mL and 380 µM"}, {"measurement": "Therapeutic index: IC50 of THLE-2 cell/IC50 of Caco2", "setting": "[1]", "value": 14.2}, {"measurement": "IC50", "setting": "[3]; Homo sapiens, MCF7, 24 h", "value": "61 µg/mL and 290 µM"}]}
{"molecule": "CN(Cc1cnc2nc(N)nc(N)c2n1)c1ccc(C(=O)N[C@@H](CCC(=O)O)C(=O)O)cc1", "note": "[methotrexate]", "values": [{"measurement": "IC50 against EAC cells", "setting": "[4]", "value": "98 ± 2", "unit": "µg/mL"}]}
{"molecule": "N.N.[Cl][Pt][Cl]", "note": "[Cisplatin, reference compound]", "values": [{"measurement": "IC50 MCF-7", "setting": "[3]; 24 h", "value": "22 ± 1", "unit": "µg/mL"}, {"measurement": "IC50", "setting": "[3]; 24 h", "value": "73 ± 5", "unit": "µM"}]}
